Measured values published in EP4775567A1, “IONIZABLE CATIONIC LIPID COMPOUNDS AS WELL AS PREPARATION METHOD THEREFOR AND USE THEREOF” (Scindy Pharmaceutical (Suzhou) Co., Ltd, priority 2023, dated 2025).

How the values were obtained:
female Balb/c mice = assay: In vivo transfection efficiency and safety of luciferase mRNA lipid nanoparticles (whole-body live imaging); settings: tail vein injection, single dose 0.3 mpk, 6 h after administration
Procedure: (§1) Luciferase mRNA was diluted in a 10-100 mM sodium citrate buffer solution at pH 4.0, with the concentration of the mRNA solution being 135 µg/ml. A mixed lipid ethanol solution was prepared at a molar ratio of ionizable cationic lipid compound (each exemplary compound) : DSPC: cholesterol : 2-[(polyethylene glycol)-2000]-N,N-ditetradecylacetamide (ALC-0159) of 50:10:38.5:1.5. The mRNA solution and the mixed lipid solution were mixed at a volume ratio of 3:1 in a nanodrug preparation device, followed by ultrafiltration to obtain luciferase mRNA lipid nanoparticles.
6-8 week-old female Balb/c mice were used to evaluate the in vivo transfection efficiency and safety of lipid nanoparticle compositions prepared from each exemplary compound. The lipid nanoparticles prepared from each exemplary compound were administered by tail vein injection at a single dose of 0.3 mpk. At specific time points after administration (e.g., 3 h, 6 h), live imaging of the animals was performed using a PerkinElmer small animal imaging system to determine the bioluminescent signal. The whole-body live imaging of mice at 3 h/6 h after intravenous administration of luciferase mRNA lipid nanoparticles prepared from Compound 1008 is shown in Fig. 2. […] Table 3 Summary of in vitro/in vivo Activity Evaluation of Lipid Nanoparticles Prepared from Compounds

[1] = Apparent pKa of blank lipid nanoparticles by TNS fluorescence; type: physicochemical; settings: compound:DSPC:cholesterol:ALC-0159 50:10:38.5:1.5, pH 2 to 11
Procedure: The apparent pKa of lipid nanoparticles is correlated with the efficacy of lipid nanoparticles in delivering nucleic acids (see Jayaraman et al., Angewandte Chemie, International Edition (2012), 51(34), 8529-8533; Semple et al., Nature Biotechnology 28, 172-176 (2010)). The apparent pKa of nanoparticles prepared from different lipid compounds was determined using fluorescence based on 2-(p-toluidino)-6-naphthalenesulfonic acid (TNS). The fluorescent probe has no fluorescence in water but […] emits fluorescence when bound to lipid membranes. Blank lipid nanoparticles were prepared at a molar ratio of ionizable cationic lipid compound (each exemplary compound) : DSPC : cholesterol : 2-[(polyethylene glycol)-2000]-N,N-ditetradecylacetamide (ALC-0159) of 50:10:38.5:1.5. They were diluted in different pH buffer solutions having a pH ranging from 2 to 11. An aqueous TNS solution was added and mixed. Then, the mixtures were added to a 96-well plate (black bottom), respectively. Detection was performed with excitation wavelength at 325 nm and the emission wavelength at 435 nm, with top detection. Measurement was performed 10 times for each well, and the fluorescence intensity was recorded. A pH-fluorescence intensity curve was plotted to determine the apparent pKa.

[2] = Zeta potential by electrophoretic light scattering; type: physicochemical; settings: luciferase mRNA lipid nanoparticles prepared from the compound; 25°C
Procedure: as §1
(§2) • 1. Determination of particle size and polydispersity index (PDI): The average particle size and PDI of the nanoparticle sample solutions in the examples were determined by dynamic light scattering using Malvern ZetaSizer Nano ZS90. The measurement angle was 90°, the refractive index of the dispersant was 1.330, and the test temperature was 25°C. • 2. Zeta potential: The Zeta potential of the nanoparticle sample solutions in the examples was determined by electrophoretic light scattering (ELS) using Malvern ZetaSizer Nano ZS90. Refractive index of the dispersant: 1.330, Test temperature: 25°C. • 3. Encapsulation Rate: The Encapsulation Rate of luciferase mRNA in lipid nanoparticles was determined using a Quant-it Ribogreen RNA quantitation kit (ThermoFisher Scientific, UK) in accordance with the manufacturer's instructions.

[3] = Encapsulation Rate of luciferase mRNA in lipid nanoparticles (Quant-it Ribogreen RNA kit); type: physicochemical; settings: luciferase mRNA in lipid nanoparticles prepared from the compound
Procedure: as §1, §2

HEK 293T cells = assay: In vitro transfection efficiency of luciferase mRNA lipid nanoparticles (luciferase activity); type: cell-based; settings: for HEK 293T Cell Luciferase Activity: 100 ng dose, 96-well plate, 24 h incubation, luciferase mRNA lipid nanoparticles
Procedure: as §1
HEK-293T cells were used to evaluate the in vitro transfection efficiency of lipid nanoparticle compositions prepared from each exemplary compound. HEK293T cells were routinely cultured in DMEM + 10% FBS medium to ensure the cells were in the logarithmic growth phase. One day before transfection, the cells were seeded into a 96-well culture plate at an appropriate cell density and grown overnight. At the time of transfection, the cell confluency needed to reach 70-90%. The lipid nanoparticle compositions prepared from each exemplary compound were diluted into 4 different dose concentrations with DMEM and added to the 96-well cell culture plate, resulting in final concentrations of 400 ng, 200 ng, 100 ng and 50 ng per well, respectively. luciferase plasmid transfected using Lipofectamine 2000 was used as the positive control (PC). After incubation for 24 h in a 5% CO2 incubator at 37°C, the substrate was added to the wells, and the luciferase activity was determined using a microplate reader. […] The luciferase activity of the luciferase mRNA lipid nanoparticles prepared from Compound 1005 in HEK293T cells is shown in Fig. 1.

[4] = Particle size and polydispersity index (PDI) by dynamic light scattering; type: physicochemical; settings: luciferase mRNA lipid nanoparticles prepared from the compound; 25°C
Procedure: as §1, §2

| Structure (SMILES) | Mouse Whole-Body Average Fluorescence Signal (female Balb/c mice) | Apparent pKa [1] | Zeta Potential [2] [mV] | Encapsulation Rate [3] [%] | HEK 293T Cell Luciferase Activity (HEK 293T cells) | Particle Size [4] [nm] | Polydispersity Index (PDI) [4] | fluorescence intensity of luciferase expressed in HEK 293T cells (HEK 293T cells; different doses (50-400 ng per well), Fig. 1) |
| --- | --- | --- | --- | --- | --- | --- | --- | --- |
| CCCCCCCCCC(CCCCCCCC)C(=O)OCC(COC(=O)C(CCCCCCCC)CCCCCCCCC)(COC(=O)C(CCCCCCCC)CCCCCCCCC)NCCC(=O)NCCN(C)C (stereo not shown) [Compound 1008] | 7.66×10^5 p/s/cm^2/sr | 6.14 | -6.06 | 95.1 | 1.86×10^6 RLU | 73.49 | 0.019 |  |
| CCCCCCCCCCCCCCCC(CC)C(=O)OCC(COC(=O)C(CC)CCCCCCCCCCCCCCC)(COC(=O)C(CC)CCCCCCCCCCCCCCC)NCCC(=O)NCCN(C)C (stereo not shown) [Compound 1005] | 1.21×10^6 p/s/cm^2/sr | 6.10 | -0.105 | 91.7 | 1.01×10^8 RLU | 55.44 | 0.076 | > 10^7 RLU |
| CCCCCCCCCCCC(CCCCCC)C(=O)OCC(COC(=O)C(CCCCCC)CCCCCCCCCCC)(COC(=O)C(CCCCCC)CCCCCCCCCCC)NCCC(=O)NCCN(C)C (stereo not shown) [Compound 1007] | 1.34×10^6 p/s/cm^2/sr | 5.13 | -4.98 | 95.9 | 1.60×10^5 RLU | 85.78 | 0.068 |  |
| CCCCCCCCCCCCCCCC(CC)C(=O)OCC(COC(=O)C(CC)CCCCCCCCCCCCCCC)(COC(=O)C(CC)CCCCCCCCCCCCCCC)NCCC(=O)NCCN(CCCC)CCCC (stereo not shown) [Compound 1013] | 1.69×10^4 p/s/cm^2/sr | 5.75 | -2.23 | 90.7 | 9.87×10^4 RLU | 82.41 | 0.123 |  |
| CCCCCCCCCCCCCCCC(CC)C(=O)OCC(COC(=O)C(CC)CCCCCCCCCCCCCCC)(COC(=O)C(CC)CCCCCCCCCCCCCCC)NCCC(=O)NCCN(CC)CC (stereo not shown) [Compound 1011] | 1.29×10^5 p/s/cm^2/sr | 6.30 | 2.31 | 91.8 | 8.22×10^7 RLU | 60.38 | 0.193 |  |
| CCCCCCCCCCCCCCCC(CC)C(=O)OCC(COC(=O)C(CC)CCCCCCCCCCCCCCC)(COC(=O)C(CC)CCCCCCCCCCCCCCC)NC(=O)CCCCN(C)CCCCO (stereo not shown) [Compound 1113] | 3.56×10^7 p/s/cm^2/sr | 5.91 | 4.57 | 100.3 | 3.43×10^4 RLU | 58.00 | 0.082 |  |
| CCCCCCCCCC(CCCCCCCC)C(=O)OCC(COC(=O)C(CCCCCCCC)CCCCCCCCC)(COC(=O)C(CCCCCCCC)CCCCCCCCC)NCCCCCCN(C)CCCCO (stereo not shown) [Compound 1120] | 3.52×10^8 p/s/cm^2/sr | 6.14 | -6.05 | 97.2 | 2.35×10^4 RLU | 98.18 | 0.049 |  |
| CCCCCCCCCC(CCCCCCCC)C(=O)OCC(COC(=O)C(CCCCCCCC)CCCCCCCCC)(COC(=O)C(CCCCCCCC)CCCCCCCCC)NCCOCCN(C)C (stereo not shown) [Compound 1059] | 4.94×10^5 p/s/cm^2/sr | 5.18 | -10.0 | 93.0 | 1.32×10^4 RLU | 72.71 | 0.067 |  |
| CCCCCCCCCCCCCC(CC)C(=O)OCC(COC(=O)C(CC)CCCCCCCCCCCCC)(COC(=O)C(CC)CCCCCCCCCCCCC)NCCC(=O)NCCN(C)C (stereo not shown) [Compound 1009] | 5.99×10^4 p/s/cm^2/sr | 5.23 | 2.60 | 92.7 | 6.15×10^7 RLU | 67.63 | 0.126 |  |
